Experimental data published in patent US6417235B2, “Method and use of α-amino-β-mercapto-ethane derivatives as dicarbonyl scavengers for treatment of conditions resulting from protein, lipid, and DNA damage” (University of Kentucky Research Foundation, priority 2000, dated 2002).

How the values were obtained:
ΦX-174 DNA = test: AGE-BSA photosensitized cleavage of ΦX-174 DNA under solar simulated light; type: biochemical; conditions: for effect on AGE-BSA photosensitized DNA cleavage: solar simulated light, AGE-BSA as photosensitizer; for photosensitizing activity (DNA nicking): SSL 0.8-16 J/cm^2
Experimental: Glycated Proteins as Photosensitizers of DNA Damage in Skin Photoaging. D-Penicillamine inhibits genotoxic consequences of AGE-photosensitization. Accumulation of AGEs on dermal elastin and collagen occurs during normal skin aging in humans. The hypothesis was tested that the intra- and extracellular accumulation of the complex yellow-brown AGE-chromophores contributes to skin aging and carcinogenesis induced by chronic exposure to sunlight. As a possible molecular mechanisms for a detrimental synergism of AGE-formation and exposure to sunlight, photosensitized DNA damage by AGEs was assessed in a simple in vitro system. Irradiation of covalently closed circular ΦX-174 DNA with increasing doses of solar simulated light (SSL) in the presence of AGE-BSA was used to detect photosensitized DNA nicking as a measure of DNA photodamage (panel A). […] Addition of several antioxidants modulated the photosensitization effect (panel C).

CF-3 cells = test: Protection of fibroblasts from alpha-dicarbonyl stress (cell count after 72 hour exposure); type: cell-based, human; conditions: FIG. 14
Experimental: (§1) A continuous cell line of human epidermal keratinocytes (HaCat cells) and human dermal fibroblasts (CF-3 cells) were routinely cultured in 75 cm^2 flasks and split biweekly in DMEM containing 10% fetal bovine serum and kept in a humidified atmosphere containing 5% CO2 at 37° C. Human keratinocytes were split using 5% trypsin and human fibroblasts employed 1% trypsin. All experiments were carried out on 6 well dishes (Falcon USA), where keratinocytes were seeded at 2×10^4 cells/well and fibroblasts at 4×10^4 cells/well. Cells were left overnight to attach to the plate and the appropriate carbonyl scavenger was then added 15 minutes prior to the addition of the alpha-dicarbonyl stress compounds glyoxal or methylglyoxal. Following 72 hour exposure to the stress compound, cells were counted with a Coulter counter. the protective effects of the alpha-dicarbonyl scavengers were assessed by comparing the growth of untreated cells with cells exposed to alpha-carbonyl stress +/− test compound.

HaCat cells = test: Protection of keratinocytes from alpha-dicarbonyl stress (cell count after 72 hour exposure); type: cell-based, human; conditions: FIG. 14
Experimental: as §1

histone H1 = test: Histone H1 crosslinking by 12% SDS-PAGE with silver staining; type: biochemical, calf; conditions: 5 mM; histone H1, ADP-ribose reaction system
Experimental: The following screening scheme is used (see Table 1): AGE-fluorescence is determined at the beginning and after five days of incubation. Test compounds that are inherently fluorescent (designated false negatives) were identified by the initial fluorescence measurement (See Table 1, NADH for example). Since these are compounds of uncertain activity, they are diverted directly to the second stage of the screen. Aminoguanidine, a known glycation inhibitory agent, was used as a positive control for suppression of the increase on AGE-fluorescence. After five days incubation and plate reading, fluorescence quenchers (designated false positives) are excluded by measuring the quenching activity of the test compound by addition of AGE modified protein having known fluorescence activity to one microtiter plate well containing test compound in the complete reaction mixture. For this, AGE-BSA is used as the AGE-type fluorescence standard. This AGE-BSA test excludes false positives compounds that function by fluorescence quenching. If fluorescence quenching occurs the test compound is excluded from further screening. […] The protein is visualized by silver staining of the gel. […] A compound that passes the first and second stage of the screen is considered a glycation inhibitor and is further evaluated for biological activity as described below. […]

[1] = tested on: glycation of histone H1 by ADP-ribose; test: Screening of inhibitors of nonoxidative advanced glycation: AGE-fluorescence on 96 well-microtiter plate; type: biochemical, calf; conditions: (± SEM, n = 2); for AGE-fluorescence (day 5): complete reaction under air
Experimental: All operations were carried out at 4° C. Chromatin was isolated from fresh calf thymus by extraction with 0.14 M NaCl, 0.05 M Na2S2O5, as described earlier in Wondrak supra. After repeated extraction with 5% HCl)4 and centrifugation (1500 g), histone H1 was precipitated from the supernatant by addition of TCA (20% final concentration v/v). The histone H1 precipitate was colleted by centrifugation (12,000 g) and deionized water. After extensive dialysis (MW cut-off: 12,000-14,000) against water for 48 h, the sample was lyophilized and the protein was stored at 4° C. SDS-PAGE (12%) was used to analyze the purity of the preparation.
Earlier studies have reported that D-penicillamine inhibits collagen crosslinking and AGE fluorescence caused by sugars (McPherson, J. D., Shilton, B. H., and Walton, D. J. 1988. Role of Fructose in Glycation and Cross-Linking of Proteins. Biochemistry 27, 1901-1907) and reaction of D-penicillamine with aldehyde groups of proteins (Deshmukh, K., and Nimm, M. E. 1969. A Defect in the Intramolecular and Intermolecular Cross-linking of Collagen caused by Penicillamine. J. Biol. Chem. 244, 1787-1795). A number of different penicillamines and penicillamine derivatives were tested to determine the inhibition of AGE-fluorescence on histone H1 at physiological pH. The reaction conditions for the glycation of histone H1 by ADP-ribose mimic physiological conditions to the extent possible. Reaction mixtures contain 1.5 mg/ml histone Hl, 1.0 mM ADP-ribose, 50 mM potassium phosphate buffer, pH 7.4, 37° C. D,L-penicillamine; L-penicillamine; D-penicllamine; D-penicillaminedisulfide and N,S- isopropylidine-D-penicillamine were tested in concentrations of 1,5 and 10 mM. The detected reaction parameter representing the accumulation of protein damage is AGE-fluorescence ((λex=[…]), which is suppressed by the presence of a compound with inhibitory activity. Generation of AGE-type fluorescence (λex=355 nm; λem=405 nm) was monitored over time at 37° C; which is in the range of the broad excitation/emission maxima of AGE compounds. To allow high throughput sample processing on 96 well microtiter plates, the reaction volumes are 300 μl. Fluorescence on the 96-well microtiter plates was measured using an automated microtiter fluorescence reader. Fluorescence of the 1 ml samples of the glycation reaction mixtures was measured using a Hitachi F-200 fluorescence spectophotometer, and prior to measurement the protein sample is dialyzed extensively against water (MW cutoff=[…]), lyophilized and reconstituted in reaction buffer. For inhibitor screening the plate is read on a Fluoroskan II plate reader (Titertek, ICN) at the excitation/emission wavelengths set forth above at a bandwidth of 35 nm.
The following screening scheme is used (see Table 1): AGE-fluorescence is determined at the beginning and after five days of incubation. Test compounds that are inherently fluorescent (designated false negatives) were identified by the initial fluorescence measurement (See Table 1, NADH for example). Since these are compounds of uncertain activity, they are diverted directly to the second stage of the screen. Aminoguanidine, a known glycation inhibitory agent, was used as a positive control for suppression of the increase on AGE-fluorescence. After five days incubation and plate reading, fluorescence quenchers (designated false positives) are excluded by measuring the quenching activity of the test compound by addition of AGE modified protein having known fluorescence activity to one microtiter plate well containing test compound in the complete reaction mixture. For this, AGE-BSA is used as the AGE-type fluorescence standard. This AGE-BSA test excludes false positives compounds that function by fluorescence quenching. If fluorescence quenching occurs the test compound is excluded from further screening. […] The protein is visualized by silver staining of the gel. […]

HaCat keratinocytes = test: AGE-photosensitization of human skin cells, growth inhibition under solar simulated light
Experimental: Human HaCat keratinocytes growing on 35 mm dishes were exposed to solar simulated light (1.2 kJ/m^2 UVB and 23 kJ/m^2 UVA) in the presence or absence of AGE-BSA as a model of a protein with advanced glycation endproducts. Control populations were treated in exactly the same way as described above, but were not exposed to solar simulated light (SSL).

With `OC[C@@H](O)[C@@H](O)[C@H](O)[C@H](O)CO` [Mannitol] the “effect on AGE-BSA photosensitized DNA cleavage” value (“effect” below) (ΦX-174 DNA) was “blocked the photosensitized DNA cleavage”.
In the case of `[N-]=[N+]=[N-].[Na+]` [NaN3], the “effect” value (ΦX-174 DNA) is reported as “blocked the photosensitized DNA cleavage”.
In the case of `N=C(N)NN` [Aminoguanidine], the “protection from alpha-dicarbonyl stress” value (CF-3 cells) is reported as “protection”, the “protection from alpha-dicarbonyl stress” value (HaCat cells) is reported as “protection” and the “inhibition of histone H1 crosslinking” value (histone H1) is reported as “inhibit histone H1 crosslinking”. For the same molecule, the “AGE-fluorescence (day 0)” value ([1]; compound 1 mM) was 1.2 (0.1) relative units, the “AGE-fluorescence (day 5)” value ([1]; compound 1 mM) was 4.3 (0.2) relative units and the “AGE-fluorescence (day 0)” value ([1]; compound 5 mM) was 1.2 (0.1) relative units. For the same molecule, the “AGE-fluorescence (day 5)” value ([1]; compound 5 mM) was 2.0 (0.0) relative units, the “AGE-fluorescence (day 0)” value ([1]; compound 10 mM) was 1.3 (0.1) relative units and the “AGE-fluorescence (day 5)” value ([1]; compound 10 mM) was 1.8 (0.0) relative units.
For “AGE-BSA: Glycosylated Bovine Serum Albumin, BSA incubated with D-glucose for 90 days at 37° C.”, the “increase in growth inhibition as compared to SSL alone” value (HaCat keratinocytes; 10 mg/mL AGE-BSA with SSL) was 4 fold, the growth inhibition (HaCat keratinocytes; 10 mg/mL AGE-BSA with SSL (1.2 kJ/m^2 UVB and 23 kJ/m^2 UVA)) was 80% and the “photosensitizing activity (DNA nicking)” value (ΦX-174 DNA) was “the damage was concentration dependent”.
For “Unmodified BSA: unmodified bovine serum albumin”, the “photosensitizing activity (DNA nicking)” value (ΦX-174 DNA) was “no such photosensitizing activity”.
catalase was tested, and the “effect” value (ΦX-174 DNA) was “not effective”.
